Experiments:
Experiment in all cases: Protein kinase selectivity panel
Assay type in all cases: biochemical
Conditions in all cases: 1.0 μM compound, 10 μM ATP
Axl(h) = biological target: T1, Axl(h) (Homo sapiens, UniProt P30530)
T1 sequence (P30530 26-894): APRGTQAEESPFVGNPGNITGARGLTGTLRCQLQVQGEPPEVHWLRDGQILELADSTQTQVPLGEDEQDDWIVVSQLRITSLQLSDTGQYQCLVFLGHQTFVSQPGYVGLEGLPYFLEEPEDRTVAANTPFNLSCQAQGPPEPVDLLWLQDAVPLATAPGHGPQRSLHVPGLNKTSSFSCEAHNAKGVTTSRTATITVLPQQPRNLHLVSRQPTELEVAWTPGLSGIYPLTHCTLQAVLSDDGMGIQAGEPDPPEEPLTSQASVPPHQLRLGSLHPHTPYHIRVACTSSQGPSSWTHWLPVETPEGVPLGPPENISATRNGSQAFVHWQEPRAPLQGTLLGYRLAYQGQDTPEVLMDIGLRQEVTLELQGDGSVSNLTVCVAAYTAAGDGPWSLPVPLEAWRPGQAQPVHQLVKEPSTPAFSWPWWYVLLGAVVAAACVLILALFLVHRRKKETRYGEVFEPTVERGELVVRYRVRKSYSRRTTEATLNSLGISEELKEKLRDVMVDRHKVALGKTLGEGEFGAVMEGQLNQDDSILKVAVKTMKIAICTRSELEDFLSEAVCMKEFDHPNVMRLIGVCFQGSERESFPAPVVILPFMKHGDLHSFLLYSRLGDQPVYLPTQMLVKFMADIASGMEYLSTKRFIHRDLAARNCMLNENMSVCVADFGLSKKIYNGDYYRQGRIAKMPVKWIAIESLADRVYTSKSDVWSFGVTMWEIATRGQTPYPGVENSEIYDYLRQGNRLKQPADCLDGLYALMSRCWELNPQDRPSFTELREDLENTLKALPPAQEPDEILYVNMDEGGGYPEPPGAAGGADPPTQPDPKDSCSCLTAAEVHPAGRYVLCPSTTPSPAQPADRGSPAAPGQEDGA
Procedure, shortened: (§1)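 At a fixed 1.0 μM compound, activity toward peptide or protein substrates was determined with ATP at 10 μM.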

Fms(h) = Fms(h) (Homo sapiens, UniProt P07333)
Chain of Fms(h) (P07333 20-972): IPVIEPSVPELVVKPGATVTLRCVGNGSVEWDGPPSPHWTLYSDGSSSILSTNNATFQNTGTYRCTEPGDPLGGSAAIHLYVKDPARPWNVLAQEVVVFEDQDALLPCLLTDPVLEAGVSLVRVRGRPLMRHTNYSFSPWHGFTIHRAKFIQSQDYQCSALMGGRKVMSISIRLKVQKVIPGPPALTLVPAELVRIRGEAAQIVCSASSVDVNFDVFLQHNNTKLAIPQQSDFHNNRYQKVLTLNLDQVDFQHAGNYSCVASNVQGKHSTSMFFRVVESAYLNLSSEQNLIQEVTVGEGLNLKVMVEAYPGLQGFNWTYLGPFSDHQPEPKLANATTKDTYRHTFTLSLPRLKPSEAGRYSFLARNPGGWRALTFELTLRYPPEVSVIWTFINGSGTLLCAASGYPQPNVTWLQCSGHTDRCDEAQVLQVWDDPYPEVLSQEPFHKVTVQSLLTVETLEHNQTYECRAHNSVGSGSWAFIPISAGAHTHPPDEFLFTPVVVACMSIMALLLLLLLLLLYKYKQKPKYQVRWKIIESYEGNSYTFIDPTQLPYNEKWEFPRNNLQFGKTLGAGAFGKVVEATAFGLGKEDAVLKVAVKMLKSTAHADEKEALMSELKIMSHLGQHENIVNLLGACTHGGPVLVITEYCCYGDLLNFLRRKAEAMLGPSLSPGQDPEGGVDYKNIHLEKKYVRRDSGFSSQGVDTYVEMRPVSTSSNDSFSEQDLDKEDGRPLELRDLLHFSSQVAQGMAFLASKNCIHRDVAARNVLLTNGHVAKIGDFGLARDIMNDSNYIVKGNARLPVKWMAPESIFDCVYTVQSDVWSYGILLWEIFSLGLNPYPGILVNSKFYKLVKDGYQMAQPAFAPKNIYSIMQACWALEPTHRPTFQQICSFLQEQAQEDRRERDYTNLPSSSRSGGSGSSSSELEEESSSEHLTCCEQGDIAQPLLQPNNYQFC
Procedure, shortened: as §1

Met(h) = Met(h) (Homo sapiens, UniProt P08581)
Chain of Met(h) (P08581 25-1390): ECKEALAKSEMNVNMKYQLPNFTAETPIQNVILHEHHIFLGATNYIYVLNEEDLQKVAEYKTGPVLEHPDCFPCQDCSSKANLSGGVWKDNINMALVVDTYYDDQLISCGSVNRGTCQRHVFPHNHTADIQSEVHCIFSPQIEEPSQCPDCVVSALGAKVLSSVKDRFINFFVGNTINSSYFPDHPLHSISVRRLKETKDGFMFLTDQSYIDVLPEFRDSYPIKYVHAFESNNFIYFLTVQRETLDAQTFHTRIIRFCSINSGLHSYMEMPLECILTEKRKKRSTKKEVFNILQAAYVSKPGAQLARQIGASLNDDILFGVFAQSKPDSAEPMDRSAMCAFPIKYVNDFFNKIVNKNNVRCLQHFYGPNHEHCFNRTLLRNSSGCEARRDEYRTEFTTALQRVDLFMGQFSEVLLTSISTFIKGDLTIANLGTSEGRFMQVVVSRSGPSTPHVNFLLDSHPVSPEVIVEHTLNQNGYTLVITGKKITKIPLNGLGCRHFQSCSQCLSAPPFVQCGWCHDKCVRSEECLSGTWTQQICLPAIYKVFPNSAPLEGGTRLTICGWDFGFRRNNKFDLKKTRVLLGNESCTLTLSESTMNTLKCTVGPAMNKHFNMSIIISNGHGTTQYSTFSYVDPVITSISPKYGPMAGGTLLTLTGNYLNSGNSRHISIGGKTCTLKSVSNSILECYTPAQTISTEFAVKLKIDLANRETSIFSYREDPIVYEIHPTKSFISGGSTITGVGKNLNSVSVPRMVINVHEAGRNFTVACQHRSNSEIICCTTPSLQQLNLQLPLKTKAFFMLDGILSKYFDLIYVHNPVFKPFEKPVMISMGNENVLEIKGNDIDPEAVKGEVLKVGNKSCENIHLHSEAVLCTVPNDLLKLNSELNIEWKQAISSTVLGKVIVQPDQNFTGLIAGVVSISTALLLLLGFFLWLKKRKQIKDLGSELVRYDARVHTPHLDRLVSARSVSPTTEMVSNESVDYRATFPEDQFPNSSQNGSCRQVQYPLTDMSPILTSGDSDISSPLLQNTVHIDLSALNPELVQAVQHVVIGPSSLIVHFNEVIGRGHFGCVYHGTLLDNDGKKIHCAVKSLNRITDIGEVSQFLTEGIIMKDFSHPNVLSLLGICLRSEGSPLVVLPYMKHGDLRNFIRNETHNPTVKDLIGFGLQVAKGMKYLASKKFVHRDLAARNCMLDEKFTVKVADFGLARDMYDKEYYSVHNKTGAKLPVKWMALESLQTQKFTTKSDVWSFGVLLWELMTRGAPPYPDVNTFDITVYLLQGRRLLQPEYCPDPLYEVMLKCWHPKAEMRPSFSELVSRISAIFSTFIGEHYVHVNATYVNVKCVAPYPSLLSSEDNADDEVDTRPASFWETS
Procedure, shortened: as §1

PKCζ(h) = biological target: T2, PKCζ(h) (Homo sapiens, UniProt Q05513)
T2 sequence (Q05513 1-592): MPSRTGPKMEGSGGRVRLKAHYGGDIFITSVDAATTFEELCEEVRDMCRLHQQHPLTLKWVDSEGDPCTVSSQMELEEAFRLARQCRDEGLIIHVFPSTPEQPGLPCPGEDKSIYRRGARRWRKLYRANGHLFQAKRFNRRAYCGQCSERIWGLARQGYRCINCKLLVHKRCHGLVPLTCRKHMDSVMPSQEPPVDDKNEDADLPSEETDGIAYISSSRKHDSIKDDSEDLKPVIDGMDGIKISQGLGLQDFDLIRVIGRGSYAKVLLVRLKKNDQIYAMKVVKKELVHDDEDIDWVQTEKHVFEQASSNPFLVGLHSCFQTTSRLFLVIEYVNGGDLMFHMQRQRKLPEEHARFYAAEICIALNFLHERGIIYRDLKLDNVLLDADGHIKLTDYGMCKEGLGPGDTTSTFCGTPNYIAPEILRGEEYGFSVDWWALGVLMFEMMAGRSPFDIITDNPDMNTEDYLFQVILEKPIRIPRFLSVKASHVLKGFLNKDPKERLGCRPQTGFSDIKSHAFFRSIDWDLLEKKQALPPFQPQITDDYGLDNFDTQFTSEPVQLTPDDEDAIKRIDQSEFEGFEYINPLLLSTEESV
Procedure, shortened: as §1

PKCη(h) = PKCη(h) (Homo sapiens, UniProt P24723)
Chain of PKCη(h) (P24723 whole entry): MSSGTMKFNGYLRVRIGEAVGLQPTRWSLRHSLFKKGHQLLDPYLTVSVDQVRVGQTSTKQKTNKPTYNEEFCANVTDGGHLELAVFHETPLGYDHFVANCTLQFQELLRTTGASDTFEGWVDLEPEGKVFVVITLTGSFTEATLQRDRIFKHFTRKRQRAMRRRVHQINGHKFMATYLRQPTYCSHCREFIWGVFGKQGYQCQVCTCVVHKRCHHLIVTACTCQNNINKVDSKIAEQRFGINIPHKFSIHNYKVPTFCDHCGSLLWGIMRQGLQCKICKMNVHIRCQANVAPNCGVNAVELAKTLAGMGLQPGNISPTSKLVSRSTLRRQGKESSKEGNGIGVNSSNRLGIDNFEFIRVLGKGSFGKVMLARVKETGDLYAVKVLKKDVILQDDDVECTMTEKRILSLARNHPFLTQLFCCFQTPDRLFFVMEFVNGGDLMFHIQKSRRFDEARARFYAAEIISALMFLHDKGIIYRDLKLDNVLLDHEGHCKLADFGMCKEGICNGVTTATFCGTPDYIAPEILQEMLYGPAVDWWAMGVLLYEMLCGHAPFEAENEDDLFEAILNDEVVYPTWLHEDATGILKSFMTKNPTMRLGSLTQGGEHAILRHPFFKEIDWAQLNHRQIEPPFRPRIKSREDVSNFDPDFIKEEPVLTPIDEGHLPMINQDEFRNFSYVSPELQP
Procedure, shortened: as §1

Rsk1(r) = Rsk1(r) (Rattus norvegicus, UniProt Q63531)
Chain of Rsk1(r) (Q63531 whole entry): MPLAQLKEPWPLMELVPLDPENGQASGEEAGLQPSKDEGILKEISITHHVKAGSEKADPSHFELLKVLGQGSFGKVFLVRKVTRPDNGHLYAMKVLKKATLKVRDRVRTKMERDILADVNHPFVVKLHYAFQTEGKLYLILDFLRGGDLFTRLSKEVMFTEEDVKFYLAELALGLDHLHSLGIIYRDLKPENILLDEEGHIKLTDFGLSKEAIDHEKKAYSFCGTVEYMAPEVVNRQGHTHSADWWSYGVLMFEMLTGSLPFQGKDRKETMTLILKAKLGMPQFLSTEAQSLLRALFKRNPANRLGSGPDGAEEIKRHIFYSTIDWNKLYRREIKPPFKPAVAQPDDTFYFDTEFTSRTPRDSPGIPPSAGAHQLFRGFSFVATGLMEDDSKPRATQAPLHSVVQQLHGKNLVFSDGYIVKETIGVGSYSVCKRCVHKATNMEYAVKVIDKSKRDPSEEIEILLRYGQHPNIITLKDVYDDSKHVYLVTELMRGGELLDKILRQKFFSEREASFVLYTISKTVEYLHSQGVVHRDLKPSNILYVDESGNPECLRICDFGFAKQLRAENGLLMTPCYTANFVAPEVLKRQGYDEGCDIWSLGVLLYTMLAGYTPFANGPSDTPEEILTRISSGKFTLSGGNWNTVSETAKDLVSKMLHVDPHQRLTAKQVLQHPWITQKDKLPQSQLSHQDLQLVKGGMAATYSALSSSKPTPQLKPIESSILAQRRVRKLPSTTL
Procedure, shortened: as §1

SGK(h) = biological target: T3, SGK(h) (Homo sapiens, UniProt O00141, S422D)
T3 sequence (O00141 60-431 S422D limits assumed): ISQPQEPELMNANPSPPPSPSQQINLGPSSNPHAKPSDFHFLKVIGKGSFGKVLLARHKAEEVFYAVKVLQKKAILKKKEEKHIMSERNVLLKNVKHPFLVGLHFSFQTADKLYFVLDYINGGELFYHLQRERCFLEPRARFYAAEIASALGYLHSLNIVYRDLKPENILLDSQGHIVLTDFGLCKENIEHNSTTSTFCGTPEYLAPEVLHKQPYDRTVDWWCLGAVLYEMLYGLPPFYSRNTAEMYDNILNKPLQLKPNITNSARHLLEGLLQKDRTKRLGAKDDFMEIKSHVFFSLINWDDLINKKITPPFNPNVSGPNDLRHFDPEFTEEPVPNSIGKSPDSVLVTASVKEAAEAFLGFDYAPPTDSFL
Procedure, shortened: as §1

ZAP-70(h) = biological target: T4, ZAP-70(h) (Homo sapiens, UniProt P43403)
T4 construct: purchased Upstate Cell Signaling Solutions (KinaseProfiler Selectivity Screening Service)
T4 sequence (P43403 1-619): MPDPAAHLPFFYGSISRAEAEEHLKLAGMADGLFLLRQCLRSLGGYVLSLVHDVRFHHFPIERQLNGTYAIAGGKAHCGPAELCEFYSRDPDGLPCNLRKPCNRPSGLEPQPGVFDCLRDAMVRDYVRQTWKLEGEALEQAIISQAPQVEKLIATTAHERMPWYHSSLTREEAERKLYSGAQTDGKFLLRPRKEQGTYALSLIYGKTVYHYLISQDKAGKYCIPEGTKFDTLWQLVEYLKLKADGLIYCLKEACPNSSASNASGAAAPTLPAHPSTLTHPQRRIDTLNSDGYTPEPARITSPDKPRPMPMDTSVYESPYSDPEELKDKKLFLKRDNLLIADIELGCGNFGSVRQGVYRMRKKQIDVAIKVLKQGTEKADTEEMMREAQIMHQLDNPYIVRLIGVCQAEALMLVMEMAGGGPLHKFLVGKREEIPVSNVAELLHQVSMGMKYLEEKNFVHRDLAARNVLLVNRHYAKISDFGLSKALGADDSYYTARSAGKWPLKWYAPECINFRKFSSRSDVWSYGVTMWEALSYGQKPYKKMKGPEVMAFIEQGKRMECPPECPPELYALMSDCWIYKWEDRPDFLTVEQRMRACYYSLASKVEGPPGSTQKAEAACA
Procedure, shortened: as §1

SMILES	Activity at Protein Kinase Assays (% of control), Axl(h) (Axl(h))	Activity at Protein Kinase Assays (% of control), Fms(h) (Fms(h))	Activity at Protein Kinase Assays (% of control), Met(h) (Met(h))	Activity at Protein Kinase Assays (% of control), PKCζ(h) (PKCζ(h))	Activity at Protein Kinase Assays (% of control), PKCη(h) (PKCη(h))	Activity at Protein Kinase Assays (% of control), Rsk1(r) (Rsk1(r))	Activity at Protein Kinase Assays (% of control), SGK(h) (SGK(h))	Activity at Protein Kinase Assays (% of control), ZAP-70(h) (ZAP-70(h))
CN(C)c1cc2cc(n1)CCCn1cc(c3ccccc31)C1=C(C(=O)NC1=O)c1cn(c3ccccc13)CCC2 [Cpd 2, 20-(dimethylamino)-4,14,19,26-tetraazaheptacyclo[24.6.1.1^7,14.1^18,22.0^2,6.0^8,13.0^27,32]pentatriaconta-1(33),2(6),7(35),8,10,12,18(34),19,21,27,29,31-dodecaene-3,5-dione]	104 % of control	101 % of control	132 % of control	105 % of control	109 % of control	7 % of control	105 % of control	103 % of control
CN(C)c1nc2ccc1CCCCn1cc(c3ccccc31)C1=C(C(=O)NC1=O)c1cn(c3ccccc13)CCC2 [Cpd 1, 31-(dimethylamino)-5,15,25,32-tetraazaheptacyclo[28.2.2.1^5,12.1^18,25.0^6,11.0^13,17.0^19,24]hexatriaconta-1(32),6,8,10,12(36),13(17),18(35),19,21,23,30,33-dodecaene-14,16-dione]	97 % of control	94 % of control	121 % of control	98 % of control	85 % of control	37 % of control	93 % of control	113 % of control
O=C1NC(=O)C2=C1c1cn(c3ccccc13)CCCc1ccc(c(N3CCCC3)n1)CCCn1cc2c2ccccc21 [Cpd 7, 31-pyrrolidin-1-yl-5,15,25,30-tetraazaheptacyclo[27.2.2.1^5,12.1^18,25.0^6,11.0^13,17.0^19,24]pentatriaconta-1(31),6,8,10,12(35),13(17),18(34),19,21,23,29,32-dodecaene-14,16-dione]	100 % of control	106 % of control	132 % of control	116 % of control	97 % of control	67 % of control	93 % of control	121 % of control
O=C1NC(=O)C2=C1c1cn(c3ccccc13)CCCc1cc(nc(N3CCCC3)c1)CCCn1cc2c2ccccc21 [Cpd 6, 20-pyrrolidin-1-yl-4,14,19,26-tetraazaheptacyclo[24.6.1.1^7,14.1^18,22.0^2,6.0^8,13.0^27,32]pentatriaconta-1(33),2(6),7(35),8,10,12,18(34),19,21,27,29,31-dodecaene-3,5-dione]	106 % of control	99 % of control	129 % of control	99 % of control	102 % of control	5 % of control	109 % of control	115 % of control
